“Also recorded” adds a separate entry of the source.
Key:
[1] = system: differentiated PC12 cells; assay: Pathway inhibitors on HN effects in MPP+-challenged differentiated PC12 cells; type: cell-based, rat; conditions: for neuroprotective effect of HN against MPP+ neurotoxicity (MTT viability): inhibitor 2 h before HN 10 μM, then MPP+ 1 mM 24 h, MK2206 1 μM, wortmannin 1 μM, U0126 10 μM
Experimental: For neuronal differentiation of PC12 cells, the cells were grown in DMEM containing 1.5% horse serum, 1.5% FBS, 1% P/S, and 100 ng/mL nerve growth factor (NGF, Thermo Fisher Scientific) every 2 days. PC12 cells were differentiated for 7 days and used for subsequent experiments.
Mouse brain tissue samples and cells were homogenized in radioimmunoprecipitation assay (RIPA) buffer (Cell Signaling, Danvers, MA, USA) in the presence of a protease and phosphatase inhibitor cocktail (Thermo Fisher Scientific). The samples were sonicated on ice, and the supernatant was collected after centrifugation at 4°C at 10,000 g for 5 min. The protein samples were loaded and separated using Tris-glycine SDS-PAGE. To detect the HN peptide, the proteins were separated into three layers of tricine SDS-PAGE, as previously described. The separated proteins were transferred to nitrocellulose membranes (GenDEPOT, Barker, TX, USA). The membranes were blocked for 0.5 h, followed by incubation with appropriate primary antibodies overnight at 4°C. The primary antibodies used were as follows: anti-tyrosine hydroxylase (Cat # P40101, Pel-Freez Biologicals), anti-HN (Cat # RA19000, Neuromics), anti-β-actin (Cat # GTX109639, GeneTex, Irvine, CA, USA), and anti-GAPDH (Cat # AM4300, Thermo Fisher Scientific). After washing, the membranes were incubated with horseradish peroxidase-labeled secondary antibodies (Cell Signaling Technology) and visualized using enhanced chemiluminescence reagents (DoGen, Seoul, South Korea). The results were analyzed using the ImageJ densitometry system. In order to detect circulating humanin in human plasma samples, proteins were extracted by trichloroacetic acid (TCA) precipitation. Loading of an equal amount of protein was confirmed by Coomassie staining of plasma samples which were depleted of albumin by Minute™ Albumin Depletion Reagent (Invent Biotechnologies, Plymouth, MN, USA).
Following treatment with the aforementioned reagents, the cells were washed and treated with 3-(4,5-dimethylthiazol-2-yl)-2,5-diphenyl-tetrazolium bromide (MTT, Thermo Fisher Scientific). Briefly, the cells were seeded in a 96-well plate at a density of 5 × 10^3 cells/well. After 24 h, a neurotoxin 1-methyl-4-phenylpyridinium (MPP^+) (Sigma-Aldrich) was applied to induce toxicity in neuronal cells. Next, the cells were incubated with MTT for 4 h, and formazan crystals were solubilized using DMSO. Absorbance was measured using a multi-plate reader at a wavelength of 570 nm, and the viability of the cells was recorded as a percentage of the control.

SH-SY5Y cells [2] = assay: FITC-HN immunofluorescence in cells; type: cell-based, human
Experimental: For HN treatment, HN was synthesized as per Fmoc-based SPPS at GL Biochem (Shanghai, China). The lyophilized synthesized HN peptide or HN peptide conjugated with fluorescein isothiocyanate (FITC-HN) was dissolved in Dimethyl sulfoxide (DMSO) and incubated at 37 ℃ with mild stirring (100 rpm) for 1 h to prepare a 10 mM stock solution. The stock solutions were kept at -20 ℃ until use.
For staining, the cells were seeded on PDL-coated glass slides and treated as indicated above. The samples were fixed using methanol and permeabilized using 0.1% Triton X-100 in PBS. […] Fluorescent images were captured at the Neuroscience Translational Research Solution Center (Busan, South Korea) using an LSM 700 confocal microscope (Zeiss, Jena, Germany). The mitochondrial network morphology was assessed using the FIJI/ImageJ software as described previously.

[3] = Brain delivery after intranasal FITC-HN; type: in vivo, mouse
Experimental: For intranasal HN treatment, the synthetic HN peptide was delivered according to a procedure reported by Capsoni et al. The synthetic HN peptide was diluted in ddH2O to a concentration of 0.1 and 5 mg/kg for mice (total volume of 40 μL) at 37 ℃ with mild stirring. The mice were held firmly in one hand in a supine position with their head at 90°. Synthetic HN was administered in the form of 5-μL drops over 20 min in alternating nostrils every 3 min. After administration, the heads of the mice were held in the same position to prevent loss of the applied solution from the nares.
To stain the mouse brain tissue samples, transcardial perfusion was performed using PBS and 4% paraformaldehyde in PBS. The brain and trigeminal ganglia were removed, post-fixed using 4% paraformaldehyde in PBS, and stored in a 30% sucrose solution at 4 ℃ until they sank. Coronal sections were prepared (thickness: 10 µm) using a sliding microtome. After blocking with 5% BSA, the samples were incubated with the appropriate primary antibody as mentioned above. […] To enhance immune signals in immunohistochemistry, a Vectastain Elite ABC Standard Kit (Vector Laboratories) was used, as per the manufacturer's instructions. The stained sections were scanned using a Pannormic MIDI scanner (3[…], Budapest, Hungary) at the Neuroscience Translational Research Solution Center. Unbiased stereological analyses were performed as previously described. […] Fluorescent images were captured at the Neuroscience Translational Research Solution Center (Busan, South Korea) using an LSM 700 confocal microscope (Zeiss, Jena, Germany). Mitochondrial network morphology was further assessed using the FIJI/ImageJ software as described previously.
A commercially available ELISA kit (MyBioSource, San Diego, CA, USA) was used to measure plasma and brain HN levels. To measure the protein levels of HN, brain homogenates (100 μg protein/well) and 100 μL of plasma samples were loaded onto competitive ELISA plates according to the manufacturer's instructions. The absorbance was measured using a microplate reader (Molecular Devices, Sunnyvale, CA, USA) at a wavelength of 450 nm.

SH-SY5Y cells [4] = assay: Real-time qPCR of mitochondrial rRNA and humanin transcripts; type: cell-based, human; conditions: IMT1 co-treated with HN for 24 h, dose-dependent
Experimental: For real-time qPCR, total RNA was extracted using TRIzol reagent (Thermo Fisher Scientific). cDNA was synthesized using a cDNA synthesis kit (Bioneer Corporation), according to the manufacturer's protocol. The mRNA levels were analyzed in a LightCycler 96 (Roche, Basel, Switzerland) using SYBR Green I master mix and SensiFAST™ SYBR® No-ROX Kit (Bioline, Paris, France). B2M (beta-2-microglobulin) gene expression was used to normalize gene expression data. The primer sequences used in this experiment are in Table S2.

[5] = system: transgenic mouse model of AD; conditions: without altering Aβ production; cited from earlier work
Text: Humanin is the first peptide representing a novel group of naturally occurring bioactive peptides encoded by the mitochondrial genome, termed MDPs. Since its discovery in 2001 [12], humanin has been proposed as a potential protective peptide for neurological disorders, cardiovascular diseases, and metabolic dysfunction. The central role of humanin in the protective response has been extensively studied in AD [13]. Maftei et al., using affinity mass spectrometry, identified that humanin can directly bind to amyloid β (Aβ), which subsequently disrupts the oligomerization of Aβ [57]. Further ...

[6] = wortmannin 1 μM pre-treatment, HN 10 μM, MPP+ 1 mM

Compound: NC1(c2ccc(-c3nc4ccn5c(=O)[nH]nc5c4cc3-c3ccccc3)cc2)CCC1 [MK-2206]
- neuroprotective effect of HN against MPP+ neurotoxicity (MTT viability) [1]: abolished the neuroprotective effect of HN

Compound: COC[C@H]1OC(=O)c2coc3c2[C@@]1(C)C1=C(C3=O)[C@@H]2CCC(=O)[C@@]2(C)C[C@H]1OC(C)=O [wortmannin]
- neuroprotective effect of HN against MPP+ neurotoxicity (MTT viability) [1]: abolished the neuroprotective effect of HN
- induction of intracellular humanin by HN treatment, western blot ([1]; wortmannin 1 μM pre-treatment 1 h, HN 10 μM, 24 h, MPP+-exposed cells): significantly inhibited; also recorded: blocked the induction of HN expression
- HN-enhanced mitochondrial mass [1, 6]: significantly blocked the impact of HN on enhancing mitochondrial mass
- HN-promoted mitochondrial biogenesis, western blot [1, 6]: significantly blocked

Compound: fluorescein isothiocyanate-conjugated humanin [FITC-HN]
- intracellular humanin signal (antibody staining) (SH-SY5Y cells [2]; 24 h FITC-HN treatment, untreated cells show weak signal): strong signal of intracellular humanin
- intracellular FITC fluorescence signal (SH-SY5Y cells [2]; 24 h after FITC-HN treatment, suggests degradation of the FITC-HN peptide): no detectable fluorescent signal
- intracellular FITC fluorescence signal (SH-SY5Y cells [2]; within 30 min of FITC-HN treatment, confocal immunofluorescence): strong intracellular fluorescence signal
- FITC-HN distribution in trigeminal nerve endoneurium ([3]; cross-sections of trigeminal nerves after intranasal administration, transgenic PD mice): diffuse to punctate in the perineural space of the endoneurium
- FITC-HN signal in trigeminal nerve perineurium region ([3]; cross-sections of trigeminal nerves, compared with endoneurium): more prominent FITC-HN signal
- duration of widespread brain distribution after intranasal administration ([3]; human α-Syn transgenic PD mice, ELISA of brain regions (CB, OB, ST, HIP, SN, CTX)): up to 1 h
- time after intranasal injection at which FITC-HN is detectable in midbrain (VTA, aqueduct) ([3]; human α-Syn-overexpressing transgenic PD mice, fluorescence imaging): ≤ 30 min
- FITC-HN localisation in brain parenchyma ([3]; within 30 minutes after intranasal treatment, GFAP staining): found in microvascular endothelial cells surrounded by astrocytic endfeet

Compound: Cc1ccccc1-c1cc(=O)oc2cc(OC(C)C(=O)N(C)C)ccc12 (stereo not shown) [IMT1, reference compound]
- humanin transcripts induced by HN peptide (SH-SY5Y cells [4]): markedly attenuated humanin transcripts

Compound: S14G-HN: a highly potent human derivative (MAPRGFSCLLLLTGEIDLPVKRRA; Humanin; UniProt Q8IVG9 1-24, looked up, variant S14G)
- total amyloid plaque burden in cerebellum, hippocampus and cortex [5]: significantly reduced the total amyloid plaque burden

Compound: N#CC(=C(/N)Sc1ccccc1N)/C(C#N)=C(/N)Sc1ccccc1N [U0126]
- neuroprotective effect of HN against MPP+ neurotoxicity (MTT viability) [1]: did not alter cell viability
